Source: patent US20110251160A1 (priority 2008, published 2011)
Like-named read-outs stand apart in the source and are kept apart here. Marks after values point to notes of the source that are not given here.

Assays:
[1] = tested on: patients with chronic atrial fibrillation; assay: PETRO study, phase 2 12-week dose finding study; assay type: in vivo, human
Source text: Primary endpoints were bleeding events and changes in D-dimer. […] Minor bleeding was dose related.

[2] = Physical properties of dabigatran etexilate; assay type: physicochemical
[3] = Clinical pharmacokinetics and pharmacodynamics of dabigatran etexilate; conditions: in vivo
[4] = tested on: patients with atrial fibrillation
Experimental: PETRO-Ex began while the PETRO study was ongoing and investigators were initially kept blinded to patient treatment group until PETRO was completed. Unblinding investigators to patient treatment was possible thereafter.
Data were summarized descriptively; no hypothesis was to be tested. Events were analyzed on the basis of the treatment at onset. Incidences were reported as number of patients with events as well as normalized to 100 patient years on the respective treatment.
Patients who completed PETRO on 50 mg b.i.d. were switched to 150 mg q.d. upon entry in the PETRO-Ex study (N=93 patients). […] Patients who were down titrated to 50 mg q.d. based on a glomerular filtration rate ≦50 mL/min during PETRO were excluded from the long-term trial; patients down-titrated in other dose levels remained on the q.d. treatment at that dose.
The former is represented by the number of thromboembolic events per 100 years, the latter by the number of bleeding events per 100 years.

[5] = tested on: cytochrome P-450 drug metabolizing enzymes; assay: Cytochrome P-450 interaction; assay type: in vitro ADME
[6] = 300 mg b.i.d., listed as dabigatran etexilate
[7] = PETRO-Ex, Dabigatran etexilate All doses
[8] = PETRO-Ex, including bleeding and thrombotic events

Compound: CCCCCCOC(=O)NC(=N)c1ccc(NCc2nc3cc(C(=O)N(CCC(=O)OCC)c4ccccn4)ccc3n2C)cc1 [Dabigatran etexilate, 1-methyl-2-[N-[4-(N-n-hexyloxycarbonylamidino)phenyl]aminomethyl]benzimidazol-5-ylcarboxylic acid-N-(2-pyridyl)-N-(2-ethoxycarbonylethyl)amides]
- Systemic thromboembolic events, number ([1]; 50 mg b.i.d. group): 2
- Major bleeding events ([1]; 300 mg b.i.d. plus ASA groups): 6%
- Major bleeding events, number ([1]; 300 mg b.i.d. plus ASA groups): Four
- Minor bleeding ([1]; 50, 150 and 300 mg b.i.d.): dose related
- Elevated transaminases >3×upper limit of normal (ULN) ([1]; dabigatran etexilate-treated patients, all doses): 0.9%
- Elevated transaminases >3×upper limit of normal (ULN), number of patients ([1]; of 432 dabigatran etexilate-treated patients): 4
- Hygroscopicity [2]: hygroscopic
- Solubility in water [2]: sparingly soluble in water
- Food interactions [3]: no food interactions
- Adverse Events leading to premature discontinuation (rate) ([4]; 50 mg b.i.d.): 21.3 per 100 patient years
- Other MACE (rate) ([4]; 50 mg b.i.d.): 8.5 per 100 patient years
- Stroke and Systemic Thromboembolism (rate) ([4]; 50 mg b.i.d.): 12.8 per 100 patient years
- Stroke and Systemic Thromboembolism (rate) ([4]; 50 mg b.i.d., listed as dabigatran etexilate): more than 12 per 100 patient years
- ALT or AST >2xULN (rate) ([4]; 150 mg b.i.d.): 3.1 per 100 patient years
- ALT or AST >3xULN (rate) ([4]; 150 mg b.i.d.): 1.9 per 100 patient years
- ALT or AST >3xULN and Bili >2xULN within 30 days (rate) ([4]; 150 mg b.i.d.): 0.4 per 100 patient years
- ALT or AST >5xULN (rate) ([4]; 150 mg b.i.d.): 1.0 per 100 patient years
- Adverse Events leading to premature discontinuation (rate) ([4]; 150 mg b.i.d.): 9.8 per 100 patient years
- Fatal major bleeds, number ([4]; 150 mg b.i.d.): 4
- MI (rate) ([4]; 150 mg b.i.d.): 0.9 per 100 patient years
- Major Bleeds (rate) ([4]; 150 mg b.i.d.): 4.2 per 100 patient years
- Major Bleeds, of these with aspirin (rate) ([4]; 150 mg b.i.d.): 8.7 per 100 patient years
- Major Bleeds, of these without aspirin (rate) ([4]; 150 mg b.i.d.): 3.2 per 100 patient years
- Major bleeding events ([4]; 150 mg b.i.d.): 4.2 % per year
- Other MACE (rate) ([4]; 150 mg b.i.d.): 1.0 per 100 patient years
- Stroke and Systemic Thromboembolism (rate) ([4]; 150 mg b.i.d.): 1.0 per 100 patient years
- TIA (rate) ([4]; 150 mg b.i.d.): 0.1 per 100 patient years
- Thromboembolic events and stroke rate ([4]; 150 mg b.i.d.): 1 % per year
- ALT or AST >2xULN (rate) ([4]; 150 mg q.d.): 3.4 per 100 patient years
- Adverse Events leading to premature discontinuation (rate) ([4]; 150 mg q.d.): 13.7 per 100 patient years
- Major Bleeds (rate) ([4]; 150 mg q.d.): 5.1 per 100 patient years
- Major Bleeds, of these without aspirin (rate) ([4]; 150 mg q.d.): 6.5 per 100 patient years
- Stroke and Systemic Thromboembolism (rate) ([4]; 150 mg q.d.): 5.1 per 100 patient years
- Stroke and Systemic Thromboembolism (rate) ([4]; 150 mg q.d., listed as dabigatran etexilate): about 5 per 100 patient years
- ALT or AST >2xULN (rate) ([4]; 300 mg b.i.d.): 4.9 per 100 patient years
- ALT or AST >3xULN (rate) ([4]; 300 mg b.i.d.): 2.4 per 100 patient years
- ALT or AST >5xULN (rate) ([4]; 300 mg b.i.d.): 1.2 per 100 patient years
- Adverse Events leading to premature discontinuation (rate) ([4]; 300 mg b.i.d.): 25.6 per 100 patient years
- Major Bleeds (rate) ([4]; 300 mg b.i.d.): 12.2 per 100 patient years
- Major Bleeds, of these with aspirin (rate) ([4]; 300 mg b.i.d.): 32.7 per 100 patient years
- Major Bleeds, of these without aspirin (rate) ([4]; 300 mg b.i.d.): 6.3 per 100 patient years
- Major bleeding events ([4]; 300 mg b.i.d.): 12.2 % per year
- Other MACE (rate) ([4]; 300 mg b.i.d.): 1.2 per 100 patient years
- Stroke and Systemic Thromboembolism (rate) ([4]; 300 mg b.i.d.): 1.2 per 100 patient years
- Thromboembolic events and stroke rate ([4]; 300 mg b.i.d.): 1.2 % per year
- Major Bleeds (rate) [4, 6]: more than 12 per 100 patient years
- Stroke and Systemic Thromboembolism (rate) [4, 6]: about 1 per 100 patient years
- ALT or AST >2xULN (rate) ([4]; 300 mg q.d.): 1.5 per 100 patient years
- ALT or AST >3xULN (rate) ([4]; 300 mg q.d.): 1.5 per 100 patient years
- ALT or AST >3xULN and Bili >2xULN within 30 days (rate) ([4]; 300 mg q.d.): 0.5 per 100 patient years
- ALT or AST >5xULN (rate) ([4]; 300 mg q.d.): 1.5 per 100 patient years
- Adverse Events leading to premature discontinuation (rate) ([4]; 300 mg q.d.): 9.6 per 100 patient years
- Fatal major bleeds, number ([4]; 300 mg q.d.): 1
- MI (rate) ([4]; 300 mg q.d.): 0.5 per 100 patient years
- Major Bleeds (rate) ([4]; 300 mg q.d.): 2.5 per 100 patient years
- Major Bleeds, of these with aspirin (rate) ([4]; 300 mg q.d.): 3.6 per 100 patient years
- Major Bleeds, of these without aspirin (rate) ([4]; 300 mg q.d.): 2.1 per 100 patient years
- Major bleeding events ([4]; 300 mg q.d.): 2.5 % per year
- Other MACE (rate) ([4]; 300 mg q.d.): 0.5 per 100 patient years
- Stroke and Systemic Thromboembolism (rate) ([4]; 300 mg q.d.): 2.5 per 100 patient years
- Stroke and Systemic Thromboembolism (rate) ([4]; 300 mg q.d., listed as dabigatran etexilate): more than 2 per 100 patient years
- Tolerability ([4]; 300 mg twice daily): not tolerable
- Serious adverse events: cardiac disorders ([4]; PETRO-Ex): 22%
- Serious adverse events: cardiac disorders, pts ([4]; PETRO-Ex): 80
- Serious adverse events: gastrointestinal disorders ([4]; PETRO-Ex): 7.8%
- Serious adverse events: gastrointestinal disorders, pts ([4]; PETRO-Ex): 28
- Serious adverse events: infections ([4]; PETRO-Ex): 9.4%
- Serious adverse events: infections, pts ([4]; PETRO-Ex): 34
- Serious adverse events: nervous system disorders ([4]; PETRO-Ex): 9.1%
- Serious adverse events: nervous system disorders, pts ([4]; PETRO-Ex): 33
- Stroke and systemic embolism (per 100 patient years) ([4]; PETRO-Ex, Dabigatran etexilate 150 mg b.i.d.): 1.0%
- Major bleeding events (per 100 patient years) ([4]; PETRO-Ex, Dabigatran etexilate 150 mg b.i.d., without concomitant aspirin): 3.2%*
- LFT abnormalities >3 xULN (per 100 patient years) [4, 7]: 1.7%
- Myocardial Infarction [4, 7]: 0.7%
- Serious adverse events [4, 8]: 51%
- Serious adverse events, patients [4, 8]: 184
- ALT or AST >2xULN (rate) ([4]; Total): 2.9 per 100 patient years
- ALT or AST >3xULN (rate) ([4]; Total): 1.7 per 100 patient years
- ALT or AST >3xULN and Bili >2xULN within 30 days (rate) ([4]; Total): 0.4 per 100 patient years
- ALT or AST >5xULN (rate) ([4]; Total): 1.1 per 100 patient years
- Adverse Events leading to premature discontinuation (rate) ([4]; Total): 11.5 per 100 patient years
- MI (rate) ([4]; Total): 0.7 per 100 patient years
- Major Bleeds (rate) ([4]; Total): 4.2 per 100 patient years
- Major Bleeds, of these with aspirin (rate) ([4]; Total): 8.5 per 100 patient years
- Major Bleeds, of these without aspirin (rate) ([4]; Total): 3.2 per 100 patient years
- Other MACE (rate) ([4]; Total): 1.1 per 100 patient years
- Stroke and Systemic Thromboembolism (rate) ([4]; Total): 1.9 per 100 patient years
- TIA (rate) ([4]; Total): 0.1 per 100 patient years
- Concomitant bilirubin elevation >2×ULN within 30 days of transaminase elevations >3×ULN ([4]; all doses): 0.4 % per year
- Elevated liver transaminases, AST or ALT >3×ULN ([4]; all doses): 1.7 % per year
- Fatal intracranial bleeds, number ([4]; all doses): Three
- Fatal major bleeds, number ([4]; all doses): Five
- Transaminases (AST or ALT) >5×ULN ([4]; all doses): 1.1 % per year
- Major bleed rate ([4]; doses ≦150 mg/day (150 mg q.d. combined with 50 mg b.i.d.)): 3.7 % per year
- Bleeding event rate ([4]; on concomitant aspirin): 8.5 % per year
- Stroke or systemic thromboembolic event rates ([4]; the two highest doses): approximately 1 % per year
- Bleeding event rate ([4]; without concomitant aspirin): 3.2 % per year
- Annualized thromboembolic event rate ([4]; ≦150 mg/day): over 5.0 per 100 patient years
- Metabolism by, induction or inhibition of cytochrome P-450 [5]: not metabolized by and does not induce or inhibit cytochrome P-450 drug metabolizing enzymes
